Assay results from patent US20260013504A1, “HERBICIDAL MIXTURE, HERBICIDAL COMPOSITION, METHOD, USE, AND KITS FOR CONTROLLING UNDESIRABLE VEGETATION” (ADAMA AGAN LTD., priority 2022, published 2026).

Key:
Type in all cases: in vivo
Lolium multiflorum Lamk = assay: Pot experiment, soil treatment, control of Lolium multiflorum Lamk (fresh weight, Colby); settings: mixtures: both AIs at these rates, after 35 days
Lithospermum arvense = assay: Pot experiment, soil treatment, control of Lithospermum arvense (fresh weight, Colby)
Bromus japonicus = assay: Pot experiment, soil treatment, control of Bromus japonicus (fresh weight, Colby); settings: mixtures: both AIs at these rates, after 35 days
Solanum nigrum = assay: Pot experiment (glass greenhouse), soil treatment, control of Solanum nigrum (fresh weight, Colby)
Galium aparine = assay: Pot experiment, soil treatment, control of Galium aparine (fresh weight, Colby)
Aegilops tauschii = assay: Pot experiment, soil treatment, control of Aegilops tauschii (fresh weight, Colby); settings: mixtures: both AIs at these rates, after 35 days
[1] = g ai/ha: pyroxasulfone 11.25, fluorochloridone 31.25, aclonifen 150, diflufenican 14.0625, terbutryn 140.625
[2] = g ai/ha: pyroxasulfone 22.5, fluorochloridone 62.5, aclonifen 300, diflufenican 28.125, terbutryn 281.25
[3] = g ai/ha: pyroxasulfone 45, fluorochloridone 125, aclonifen 600, diflufenican 56.25, terbutryn 562.5
[4] = g ai/ha: pyroxasulfone 90, fluorochloridone 250, aclonifen 1200, diflufenican 112.5, terbutryn 1125
[5] = g ai/ha: pyroxasulfone 180, fluorochloridone 500, aclonifen 2400, diflufenican 225, terbutryn 2250
[6] = g ai/ha: pyroxasulfone 360, fluorochloridone 1000, aclonifen 4800, diflufenican 450, terbutryn 4500

**Q.** With CCNc1nc(NC(C)(C)C)nc(SC)n1 [terbutryn, N-(1,1-dimethylethyl)-N′-ethyl-6-(methylthio)-1,3,5-triazine-2,4-diamine] as the compound, how does the “Measured fresh weight inhibition rate (%)” value (Lolium multiflorum Lamk; [1]) read?
**A.** 94.3%

**Q.** What about the “Measured fresh weight survival rate (%) - E” value (Lolium multiflorum Lamk; [1]) of the same compound?
**A.** 5.7%

**Q.** What about the “Measured fresh weight inhibition rate (%)” value (Lolium multiflorum Lamk; [2]) of the same compound?
**A.** 94.8%

**Q.** What about the “Measured fresh weight survival rate (%) - E” value (Lolium multiflorum Lamk; [2]) of the same compound?
**A.** 5.2%

**Q.** What about the “Measured fresh weight inhibition rate (%)” value (Lolium multiflorum Lamk; [3]) of the same compound?
**A.** 100.0%

**Q.** And the “Measured fresh weight survival rate (%) - E” value (Lolium multiflorum Lamk; [3])?
**A.** 0.0%

**Q.** And the “Measured fresh weight inhibition rate (%)” value (Lolium multiflorum Lamk; [4])?
**A.** 100.0%

**Q.** What about the “Measured fresh weight survival rate (%) - E” value (Lolium multiflorum Lamk; [4]) of the same compound?
**A.** 0.0%

**Q.** And the “Measured fresh weight inhibition rate (%)” value (Lolium multiflorum Lamk; [5])?
**A.** 100.0%

**Q.** And the “Measured fresh weight survival rate (%) - E” value (Lolium multiflorum Lamk; [5])?
**A.** 0.0%

**Q.** What about the “Measured fresh weight inhibition rate (%)” value (Lolium multiflorum Lamk; [6]) of the same compound?
**A.** 100.0%

**Q.** What about the “Measured fresh weight survival rate (%) - E” value (Lolium multiflorum Lamk; [6]) of the same compound?
**A.** 0.0%

**Q.** What about the “Measured fresh weight survival rate (%) - E” value (Lithospermum arvense; 140.625 g ai/ha) of the same compound?
**A.** 1.4%

**Q.** And the “Measured fresh weight survival rate (%) - E” value (Lithospermum arvense; 281.25 g ai/ha)?
**A.** 1.4%

**Q.** And the “Measured fresh weight survival rate (%) - E” value (Lithospermum arvense; 562.5 g ai/ha)?
**A.** 0.0%

**Q.** And the “Measured fresh weight survival rate (%) - E” value (Lithospermum arvense; 1125 g ai/ha)?
**A.** 0.0%

**Q.** And the “Measured fresh weight survival rate (%) - E” value (Lithospermum arvense; 2250 g ai/ha)?
**A.** 0.0%

**Q.** What about the inhibition at 140.625 g/ha (Lithospermum arvense; Buglossoides arvensis, soil, 140.625 g ai/ha, read-out: Measured fresh weight inhibition rate (%)) of the same compound?
**A.** 98.6%

**Q.** And the inhibition at 281.25 g/ha (Lithospermum arvense; Buglossoides arvensis, soil, 281.25 g ai/ha, read-out: Measured fresh weight inhibition rate (%))?
**A.** 98.6%

**Q.** And the inhibition at 562.5 g/ha (Lithospermum arvense; Buglossoides arvensis, soil, 562.5 g ai/ha, read-out: Measured fresh weight inhibition rate (%))?
**A.** 100%

**Q.** And the inhibition at 1125 g/ha (Lithospermum arvense; Buglossoides arvensis, soil, 1125 g ai/ha, read-out: Measured fresh weight inhibition rate (%))?
**A.** 100%

**Q.** What about the inhibition at 2250 g/ha (Lithospermum arvense; Buglossoides arvensis, soil, 2250 g ai/ha, read-out: Measured fresh weight inhibition rate (%)) of the same compound?
**A.** 100%

**Q.** And the “Measured fresh weight inhibition rate (%)” value (Bromus japonicus; [1])?
**A.** 100.0%

**Q.** What about the “Measured fresh weight survival rate (%) - E” value (Bromus japonicus; [1]) of the same compound?
**A.** 0.0%

**Q.** And the “Measured fresh weight inhibition rate (%)” value (Bromus japonicus; [2])?
**A.** 100.0%

**Q.** What about the “Measured fresh weight survival rate (%) - E” value (Bromus japonicus; [2]) of the same compound?
**A.** 0.0%

**Q.** And the “Measured fresh weight inhibition rate (%)” value (Bromus japonicus; [3])?
**A.** 100.0%

**Q.** What about the “Measured fresh weight survival rate (%) - E” value (Bromus japonicus; [3]) of the same compound?
**A.** 0.0%

**Q.** And the “Measured fresh weight inhibition rate (%)” value (Bromus japonicus; [4])?
**A.** 100.0%

**Q.** And the “Measured fresh weight survival rate (%) - E” value (Bromus japonicus; [4])?
**A.** 0.0%

**Q.** What about the “Measured fresh weight inhibition rate (%)” value (Bromus japonicus; [5]) of the same compound?
**A.** 100.0%

**Q.** What about the “Measured fresh weight survival rate (%) - E” value (Bromus japonicus; [5]) of the same compound?
**A.** 0.0%

**Q.** What about the “Measured fresh weight survival rate (%) - E” value (Solanum nigrum; 140.625 g ai/ha) of the same compound?
**A.** 57.6%

**Q.** What about the “Measured fresh weight survival rate (%) - E” value (Solanum nigrum; 281.25 g ai/ha) of the same compound?
**A.** 36.1%

**Q.** What about the “Measured fresh weight survival rate (%) - E” value (Solanum nigrum; 562.5 g ai/ha) of the same compound?
**A.** 0.4%

**Q.** What about the “Measured fresh weight survival rate (%) - E” value (Solanum nigrum; 1125 g ai/ha) of the same compound?
**A.** 0.0%

**Q.** What about the “Measured fresh weight survival rate (%) - E” value (Solanum nigrum; 2250 g ai/ha) of the same compound?
**A.** 0.0%

**Q.** And the inhibition at 140.625 g/ha (Solanum nigrum; Solanum nigrum, soil, 140.625 g ai/ha, read-out: Measured fresh weight inhibition rate (%))?
**A.** 42.4%

**Q.** What about the inhibition at 281.25 g/ha (Solanum nigrum; Solanum nigrum, soil, 281.25 g ai/ha, read-out: Measured fresh weight inhibition rate (%)) of the same compound?
**A.** 63.9%

**Q.** What about the inhibition at 562.5 g/ha (Solanum nigrum; Solanum nigrum, soil, 562.5 g ai/ha, read-out: Measured fresh weight inhibition rate (%)) of the same compound?
**A.** 99.6%

**Q.** And the inhibition at 1125 g/ha (Solanum nigrum; Solanum nigrum, soil, 1125 g ai/ha, read-out: Measured fresh weight inhibition rate (%))?
**A.** 100%

**Q.** What about the inhibition at 2250 g/ha (Solanum nigrum; Solanum nigrum, soil, 2250 g ai/ha, read-out: Measured fresh weight inhibition rate (%)) of the same compound?
**A.** 100%

**Q.** What about the “Measured fresh weight survival rate (%) - E” value (Galium aparine; 140.625 g ai/ha) of the same compound?
**A.** 80.8%

**Q.** What about the “Measured fresh weight survival rate (%) - E” value (Galium aparine; 281.25 g ai/ha) of the same compound?
**A.** 53.4%

**Q.** And the “Measured fresh weight survival rate (%) - E” value (Galium aparine; 562.5 g ai/ha)?
**A.** 9.6%

**Q.** What about the “Measured fresh weight survival rate (%) - E” value (Galium aparine; 1125 g ai/ha) of the same compound?
**A.** 8.2%

**Q.** And the “Measured fresh weight survival rate (%) - E” value (Galium aparine; 2250 g ai/ha)?
**A.** 0.0%

**Q.** And the inhibition at 140.625 g/ha (Galium aparine; Galium aparine, soil, 140.625 g ai/ha, read-out: Measured fresh weight inhibition rate (%))?
**A.** 19.2%

**Q.** What about the inhibition at 281.25 g/ha (Galium aparine; Galium aparine, soil, 281.25 g ai/ha, read-out: Measured fresh weight inhibition rate (%)) of the same compound?
**A.** 46.6%

**Q.** What about the inhibition at 562.5 g/ha (Galium aparine; Galium aparine, soil, 562.5 g ai/ha, read-out: Measured fresh weight inhibition rate (%)) of the same compound?
**A.** 90.4%

**Q.** And the inhibition at 1125 g/ha (Galium aparine; Galium aparine, soil, 1125 g ai/ha, read-out: Measured fresh weight inhibition rate (%))?
**A.** 91.8%

**Q.** What about the inhibition at 2250 g/ha (Galium aparine; Galium aparine, soil, 2250 g ai/ha, read-out: Measured fresh weight inhibition rate (%)) of the same compound?
**A.** 100%

**Q.** And the “Measured fresh weight inhibition rate (%)” value (Aegilops tauschii; [1])?
**A.** 8.5%

**Q.** What about the “Measured fresh weight survival rate (%) - E” value (Aegilops tauschii; [1]) of the same compound?
**A.** 91.5%

**Q.** What about the “Measured fresh weight inhibition rate (%)” value (Aegilops tauschii; [2]) of the same compound?
**A.** 12.8%

**Q.** And the “Measured fresh weight survival rate (%) - E” value (Aegilops tauschii; [2])?
**A.** 87.2%

**Q.** What about the “Measured fresh weight inhibition rate (%)” value (Aegilops tauschii; [3]) of the same compound?
**A.** 46.3%

**Q.** What about the “Measured fresh weight survival rate (%) - E” value (Aegilops tauschii; [3]) of the same compound?
**A.** 53.7%

**Q.** What about the “Measured fresh weight inhibition rate (%)” value (Aegilops tauschii; [4]) of the same compound?
**A.** 97.6%

**Q.** And the “Measured fresh weight survival rate (%) - E” value (Aegilops tauschii; [4])?
**A.** 2.4%

**Q.** What about the “Measured fresh weight inhibition rate (%)” value (Aegilops tauschii; [5]) of the same compound?
**A.** 96.3%

**Q.** What about the “Measured fresh weight survival rate (%) - E” value (Aegilops tauschii; [5]) of the same compound?
**A.** 3.7%

**Q.** What about the “Measured fresh weight inhibition rate (%)” value (Aegilops tauschii; [6]) of the same compound?
**A.** 100.0%

**Q.** What about the “Measured fresh weight survival rate (%) - E” value (Aegilops tauschii; [6]) of the same compound?
**A.** 0.0%
